Converted amounts (≈) assume the structure as drawn. Like-named read-outs stand apart in the source and are kept apart here. Each block holds one molecule with its values, some of them ahead of it. Numbered stars: 1 amine (or outer) side, 2 acyl side, 3 side chain; on linkers, the order of the positions; unused ones are H or OH. Square brackets hold non-standard residues; d marks the D form. Peptide text beside a SMILES is read from it. X19 = CN([C@@H](Cc1cccc(-c2ccc(OCc3ccccc3)cc2)c1)C(=O)[*:2])[*:1]; X2 = CN1CCN(c2ccc(-c3cccc(C[C@@H](C(=O)[*:2])N(C)[*:1])c3)cc2)CC1; X23 = CN([C@@H](Cc1cccc(-c2cccc3c2cnn3C)c1)C(=O)[*:2])[*:1]; Hmp(2R,3S) = CC[C@H](C)[C@@H](O)C(=O)O; NMeVal(β-OH) = CN[C@H](C(=O)O)C(C)(C)O; NMeV = CN[C@H](C(=O)O)C(C)C
Experiments:
[1] = tested on: C. parapsilosis MMX 2323 ATCC 22019; assay: MIC assay (CLSI microdilution); assay type: cell-based, Candida parapsilosis
In short: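 Broth microdilution MIC testing of Candida parapsilosis ATCC 22019 followed CLSI methods in RPMI-1640, with or without 0.002% Tween-80. Yeast grown 48 hours at 35° C on Sabouraud dextrose agar was suspended to a 0.5 McFarland standard and diluted 1:100 to roughly 0.5-2.5×10^3 CFU/mL. The MIC was the lowest concentration preventing visible growth.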

A. flavus MMX 5948 = assay: MIC/MEC assay (CLSI microdilution); assay type: cell-based; settings: Aspergillus flavus
In short: (§1)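 Test agents were assayed by CLSI broth microdilution in Tween-80-supplemented (0.002%) RPMI-1640 against spore inocula of approximately 0.2-2.5×10^4 CFU/mL. Strain MMX 5280 was run both with and without Tween-80.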

[2] = tested on: A. fumigatus MMX 6782 ATCC 13073; assay: MIC/MEC assay (CLSI microdilution); assay type: cell-based; settings: Aspergillus fumigatus
In short: as §1

[3] = tested on: A. niger MMX 0624 ATCC 16888; assay: MIC/MEC assay (CLSI microdilution); assay type: cell-based
In short: as §1

[4] = tested on: A. fumigatus MMX 5280 ATCC MYA-3626; assay: MIC/MEC assay (CLSI microdilution); assay type: cell-based, Aspergillus fumigatus
In short: as §1

[5] = tested on: C. albicans MMX 2000 ATCC 10231; assay: MIC assay (CLSI microdilution); assay type: cell-based; settings: Candida albicans
[6] = tested on: C. neoformans MMX 0634 ATCC 90112; assay: MIC assay (CLSI microdilution); assay type: cell-based; settings: Cryptococcus neoformans, read-out: MIC
A. fumigatus MMX 5944 = assay: MIC/MEC assay (CLSI microdilution); assay type: cell-based
In short: as §1

[7] = tested on: A. fumigatus MMX 6781 ATCC MYA-4609; assay: MIC/MEC assay (CLSI microdilution); assay type: cell-based; settings: Aspergillus fumigatus
In short: as §1

[8] = tested on: A. fumigatus from Aureogen; assay: MIC/MEC assay (CLSI microdilution); assay type: cell-based; settings: Aspergillus fumigatus
In short: as §1

[9] = tested on: C. albicans MMX 2000 ATCC 10231; assay: MIC assay (CLSI microdilution); assay type: cell-based; settings: Candida albicans, ATCC10231, RPMI plus 0.002% Tween-80; read-out: MIC
[10] = MMX5948, 48 h, RPMI plus 0.002% Tween-80
[11] = RPMI plus 0.002% Tween-80, 48 hr
[12] = ATCC90112, RPMI plus 0.002% Tween-80
[13] = ATCC22019, RPMI plus 0.002% Tween-80, read-out: MIC
[14] = ATCC22019, Without Tween-80, read-out: MIC
[15] = RPMI plus 0.002% Tween-80, 48 hr, read-out: MIC
[16] = Aspergillus fumigatus, 48 h, RPMI plus 0.002% Tween-80, read-out: MEC
[17] = Aspergillus fumigatus, 48 h, Without Tween-80, read-out: MEC
[18] = 48 h, RPMI plus 0.002% Tween-80, read-out: MIC

Structure (SMILES): CC[C@H](C)[C@@H]1NC(=O)[C@@H]2CCCN2C(=O)[C@H](Cc2cccc(-c3ccc(OCc4ccccc4)cc3)c2)N(C)C(=O)[C@H](Cc2ccccc2)NC(=O)[C@H](C(C)C)N(C)C(=O)[C@@H]([C@@H](C)CC)OC(=O)[C@H](C(C)(C)O)N(C)C(=O)[C@H](CC(C)C)NC(=O)[C@H](C(C)C)N(C)C1=O [Compound 13] (cyclo(F[X19]PI[NMeV]L[NMeVal(β-OH)][Hmp(2R,3S)][NMeV]))
MIC ([1]; ATCC22019, RPMI plus 0.002% Tween-80): > 64 mg/L
MIC ([1]; ATCC22019, Without Tween-80): > 64 mg/L
MIC (A. flavus MMX 5948; [10]): > 64 mg/L
MIC ([2]; ATCC13073, 48 h, RPMI plus 0.002% Tween-80): > 64 mg/L
minimal effective concentration ([2]; ATCC13073, 48 h, read-out: MEC, RPMI plus 0.002% Tween-80): 1 µg/mL
MEC [3, 11]: 2 µg/mL
MIC [3, 11]: 8 mg/L
minimal effective concentration ([4]; Aspergillus fumigatus, 48 h, read-out: MEC, RPMI plus 0.002% Tween-80): > 64 µg/mL
minimal effective concentration ([4]; Aspergillus fumigatus, 48 h, read-out: MEC, Without Tween-80): > 64 µg/mL
MIC ([4]; Without Tween-80, 48 hr): >64/>64 μg/mL
MIC ([5]; ATCC10231, RPMI plus 0.002% Tween-80): 0.5 mg/L

Structure (SMILES): CC[C@H](C)[C@@H]1NC(=O)[C@@H]2CCCN2C(=O)[C@H](Cc2cccc(-c3cccc4c3cnn4C)c2)N(C)C(=O)[C@H](Cc2ccccc2)NC(=O)[C@H](C(C)C)N(C)C(=O)[C@@H]([C@@H](C)CC)OC(=O)[C@H](C(C)(C)O)N(C)C(=O)[C@H](CC(C)C)NC(=O)[C@H](C(C)C)N(C)C1=O [Compound 14] (cyclo(F[X23]PI[NMeV]L[NMeVal(β-OH)][Hmp(2R,3S)][NMeV]))
MIC [6, 12]: 0.5 mg/L
MIC [1, 13]: 0.12 mg/L
MIC [1, 14]: 1 mg/L (≈ 0.812 µM)
minimal effective concentration (A. flavus MMX 5948; MMX5948, RPMI plus 0.002% Tween-80, 48 hr): > 64 µg/mL
MIC (A. flavus MMX 5948; MMX5948, RPMI plus 0.002% Tween-80, 48 hr, read-out: MIC): > 64 mg/L
MEC (A. fumigatus MMX 5944; [11]): 1 µg/mL
MIC (A. fumigatus MMX 5944; [11]): 8 mg/L
minimal effective concentration [7, 11]: 1 µg/mL
MIC [7, 15]: > 64 mg/L
minimal effective concentration ([2]; ATCC13073, RPMI plus 0.002% Tween-80, 48 hr, read-out: MEC): 0.25 µg/mL
MIC ([2]; ATCC13073, RPMI plus 0.002% Tween-80, 48 hr, read-out: MIC): > 64 mg/L
minimal effective concentration [8, 11]: 1 µg/mL
MIC [8, 15]: > 64 mg/L
minimal effective concentration ([3]; Aspergillus niger, ATCC16888, RPMI plus 0.002% Tween-80, 48 hr, read-out: MEC): 0.12 µg/mL
MIC ([3]; Aspergillus niger, ATCC16888, RPMI plus 0.002% Tween-80, 48 hr, read-out: MIC): 0.12 mg/L
minimal effective concentration [4, 16]: 0.5 µg/mL
minimal effective concentration [4, 17]: 2 µg/mL
MIC ([4]; Aspergillus fumigatus, RPMI plus 0.002% Tween-80, 48 hr, read-out: MIC): > 64 mg/L
MIC ([4]; Without Tween-80, 48 hr): > 64 mg/L
MIC ([5]; ATCC10231, RPMI plus 0.002% Tween-80, read-out: MIC): 0.03 mg/L

MIC [9]: 0.015 mg/L
MIC ([6]; ATCC90112, 72 h, 72 hour, RPMI plus 0.002% Tween-80): 0.06 mg/L
MIC [6, 12]: 0.03 mg/L
MIC [1, 13]: 0.03 mg/L
MIC [1, 14]: 1 mg/L (≈ 0.784 µM)
MIC ([1]; Without Tween-80): 2 mg/L (≈ 1.57 µM)
MIC (A. flavus MMX 5948; MMX5948, 48 h, RPMI plus 0.002% Tween-80, read-out: MIC): 0.015 mg/L
MIC (A. fumigatus MMX 5944; Aspergillus fumigatus, MMX5944, 48 h, RPMI plus 0.002% Tween-80, read-out: MIC): 0.06 mg/L
MIC [7, 18]: 0.12 mg/L
MIC ([2]; ATCC13073, 48 h, RPMI plus 0.002% Tween-80, read-out: MIC): 0.12 mg/L
MIC [8, 18]: 0.25 mg/L
MIC ([3]; Aspergillus niger, ATCC16888, 48 h, RPMI plus 0.002% Tween-80, read-out: MIC): 0.015 mg/L
MIC [3, 11]: 0.015 mg/L
MIC ([4]; Aspergillus fumigatus, 48 h, RPMI plus 0.002% Tween-80, read-out: MIC): 0.25 mg/L
MIC ([4]; Aspergillus fumigatus, 48 h, Without Tween-80, read-out: MIC): 1 mg/L (≈ 0.784 µM)
MIC ([4]; Without Tween-80, 48 hr): 2 mg/L (≈ 1.57 µM)
MIC ([5]; ATCC10231, Without Tween-80, read-out: MIC): 0.5 mg/L (≈ 0.392 µM)
Structure (SMILES): CC[C@H](C)[C@@H]1NC(=O)[C@@H]2CCCN2C(=O)[C@H](Cc2cccc(-c3ccc(N4CCN(C)CC4)cc3)c2)N(C)C(=O)[C@H](Cc2ccccc2)NC(=O)[C@H](C(C)C)N(C)C(=O)[C@@H]([C@@H](C)CC)OC(=O)[C@H](C(C)(C)O)N(C)C(=O)[C@H](CC(C)C)NC(=O)[C@H](C(C)C)N(C)C1=O [Compound 19] (cyclo(F[X2]PI[NMeV]L[NMeVal(β-OH)][Hmp(2R,3S)][NMeV]))
minimal effective concentration (A. flavus MMX 5948; [10]): 0.008 µg/mL
minimal effective concentration (A. fumigatus MMX 5944; Aspergillus fumigatus, MMX5944, 48 h, RPMI plus 0.002% Tween-80): 0.015 µg/mL
MEC (A. fumigatus MMX 5944; [11]): 0.015 µg/mL
minimal effective concentration [7, 11]: 0.06 µg/mL
minimal effective concentration ([2]; ATCC13073, 48 h, RPMI plus 0.002% Tween-80, read-out: MEC): 0.03 µg/mL
minimal effective concentration ([8]; 48 h, RPMI plus 0.002% Tween-80): 0.06 µg/mL
minimal effective concentration ([3]; Aspergillus niger, ATCC16888, 48 h, RPMI plus 0.002% Tween-80, read-out: MEC): 0.008 µg/mL
minimal effective concentration [4, 16]: 0.06 µg/mL
minimal effective concentration [4, 17]: 0.5 µg/mL
MEC ([4]; Without Tween-80, 48 hr): 1 µg/mL

Source: US11066447B2, “Aureobasidium derivatives and methods of synthesis” (AureoGen Biosciences, Inc., priority 2016, dated 2021)
